{
  "source": "patent US7138361B2",
  "about": "“Herbicidal heterocycles” (E. I. du Pont de Nemours and Company, priority 2000, dated 2006)",
  "assay_in_all_cases": "Test C preemergence",
  "assay_type_in_all_cases": "in vivo",
  "key": {"Nightshade [1]": {"test_system": "Nightshade", "settings": "Rate 500 g/ha, visual evaluation after 12 to 14 days"}, "[2]": {"test_system": "giant foxtail (Setaria faberii)", "how_it_was_run": "(§1)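 Herbicidal effect is a visual 0–100 score (100 = complete control) assigned versus untreated plants, 12 to 14 days after spraying in the greenhouse. Test compounds were applied in a non-phytotoxic, surfactant-containing solvent.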"}, "[3]": {"test_system": "yellow nutsedge (Cyperus esculentus)", "how_it_was_run": "as §1"}, "[4]": {"test_system": "bermudagrass (Cynodon dactylon)", "how_it_was_run": "as §1"}, "corn (Zea mays)": {"test_system": "corn (Zea mays)", "how_it_was_run": "as §1"}, "soybean (Glycine max)": {"test_system": "soybean (Glycine max)", "how_it_was_run": "as §1"}, "[5]": {"test_system": "cocklebur (Xanthium strumarium)", "how_it_was_run": "as §1"}, "kochia (Kochia scoparia)": {"test_system": "kochia (Kochia scoparia)", "how_it_was_run": "as §1"}, "[6]": {"test_system": "Surinam grass (Brachiaria decumbens)", "how_it_was_run": "as §1"}, "[7]": {"test_system": "johnsongrass (Sorghum halepense)", "how_it_was_run": "as §1"}, "[8]": {"test_system": "velvetleaf (Abutilon theophrasti)", "how_it_was_run": "as §1"}, "Nightshade [9]": {"test_system": "Nightshade"}, "[10]": {"test_system": "goosegrass (Eleusine indica)", "how_it_was_run": "as §1"}, "[11]": {"test_system": "common ragweed (Ambrosia elatior)", "how_it_was_run": "as §1"}, "[12]": {"test_system": "lambsquarters (Chenopodium album)", "how_it_was_run": "as §1"}, "[13]": {"test_system": "pigweed (Amaranthus retroflexus)", "how_it_was_run": "as §1"}, "[14]": {"test_system": "crabgrass (Digitaria sanguinalis)", "how_it_was_run": "as §1"}, "[15]": {"test_system": "morningglory (Ipomoea hederacea)", "how_it_was_run": "as §1"}, "[16]": {"test_system": "woolly cupgrass (Eriochloa villosa)", "how_it_was_run": "as §1"}, "Sunflower": {"test_system": "Sunflower", "settings": "Rate 125 g/ha; scale 0 to 100, 0 no effect, 100 complete control"}, "[17]": {"settings": "Rate 125 g/ha, scale 0 to 100, 0 no effect, 100 complete control"}, "[18]": {"settings": "preemergence, Rate 62 g/ha, scale 0 to 100"}, "[19]": {"settings": "preemergence, Rate 500 g/ha, visual evaluation after 12 to 14 days"}, "[20]": {"settings": "preemergence, Rate 250 g/ha, scale 0 to 100, 0 no effect, 100 complete control"}},
  "data": [
    {"smiles": "CCCC(C)c1ccn(C2SCN(c3cccc(C(F)(F)F)c3)C2=O)n1", "note": "(stereo not shown) [Compound 92]", "values": [
      {"measurement": "Plant response rating (0 to 100), Nightshade", "setting": "Nightshade [1]", "result": 80},
      {"measurement": "Plant response rating, Foxtail, Giant", "setting": "[2]; [17]", "result": 0},
      {"measurement": "Plant response rating, Foxtail, Giant", "setting": "[2]; [18]", "result": 20},
      {"measurement": "Plant response rating (0 to 100), Foxtail, Giant", "setting": "[2]; [19]", "result": 100},
      {"measurement": "Plant response rating, Foxtail, Giant", "setting": "[2]; [20]", "result": 100},
      {"measurement": "Plant response rating, Nutsedge", "setting": "[3]; [17]", "result": 0},
      {"measurement": "Plant response rating, Nutsedge", "setting": "[3]; [18]", "result": 0},
      {"measurement": "Plant response rating (0 to 100), Nutsedge", "setting": "[3]; [19]", "result": 0},
      {"measurement": "Plant response rating, Nutsedge", "setting": "[3]; [20]", "result": 0},
      {"measurement": "Plant response rating, Bermudagrass", "setting": "[4]; [17]", "result": 20},
      {"measurement": "Plant response rating, Bermudagrass", "setting": "[4]; [18]", "result": 20},
      {"measurement": "Plant response rating (0 to 100 where 0 is no effect and 100 is complete control), Bermudagrass", "setting": "[4]; [19]", "result": 90},
      {"measurement": "Plant response rating, Bermudagrass", "setting": "[4]; [20]", "result": 85},
      {"measurement": "Plant response rating, Corn", "setting": "corn (Zea mays); [17]", "result": 10},
      {"measurement": "Plant response rating, Corn", "setting": "corn (Zea mays); [18]", "result": 0},
      {"measurement": "Plant response rating (0 to 100), Corn", "setting": "corn (Zea mays); [19]", "result": 40},
      {"measurement": "Plant response rating, Corn", "setting": "corn (Zea mays); [20]", "result": 30},
      {"measurement": "Plant response rating, Soybean", "setting": "soybean (Glycine max); [17]", "result": 0},
      {"measurement": "Plant response rating, Soybean", "setting": "soybean (Glycine max); [18]", "result": 0},
      {"measurement": "Plant response rating (0 to 100), Soybean", "setting": "soybean (Glycine max); [19]", "result": 100},
      {"measurement": "Plant response rating, Soybean", "setting": "soybean (Glycine max); [20]", "result": 30},
      {"measurement": "Plant response rating, Cocklebur", "setting": "[5]; [17]", "result": 0},
      {"measurement": "Plant response rating, Cocklebur", "setting": "[5]; [18]", "result": 0},
      {"measurement": "Plant response rating (0 to 100), Cocklebur", "setting": "[5]; [19]", "result": 20},
      {"measurement": "Plant response rating, Cocklebur", "setting": "[5]; [20]", "result": 20},
      {"measurement": "Plant response rating, Kochia", "setting": "kochia (Kochia scoparia); [17]", "result": 40},
      {"measurement": "Plant response rating, Kochia", "setting": "kochia (Kochia scoparia); [18]", "result": 0},
      {"measurement": "Plant response rating (0 to 100), Kochia", "setting": "kochia (Kochia scoparia); [19]", "result": 100},
      {"measurement": "Plant response rating, Kochia", "setting": "kochia (Kochia scoparia); [20]", "result": 70},
      {"measurement": "Plant response rating, Surinam grass", "setting": "[6]; [17]", "result": 0},
      {"measurement": "Plant response rating, Surinam grass", "setting": "[6]; [18]", "result": 0},
      {"measurement": "Plant response rating (0 to 100), Surinam grass", "setting": "[6]; [19]", "result": 35},
      {"measurement": "Plant response rating, Surinam grass", "setting": "[6]; [20]", "result": 20},
      {"measurement": "Plant response rating, Johnsongrass", "setting": "[7]; [17]", "result": 65},
      {"measurement": "Plant response rating, Johnsongrass", "setting": "[7]; [18]", "result": 50},
      {"measurement": "Plant response rating (0 to 100), Johnsongrass", "setting": "[7]; [19]", "result": 100},
      {"measurement": "Plant response rating, Johnsongrass", "setting": "[7]; [20]", "result": 70},
      {"measurement": "Plant response rating, Velvetleaf", "setting": "[8]; [17]", "result": 0},
      {"measurement": "Plant response rating, Velvetleaf", "setting": "[8]; [18]", "result": 0},
      {"measurement": "Plant response rating (0 to 100), Velvetleaf", "setting": "[8]; [19]", "result": 0},
      {"measurement": "Plant response rating, Velvetleaf", "setting": "[8]; [20]", "result": 0},
      {"measurement": "Plant response rating, Nightshade", "setting": "Nightshade [9]; Rate 62 g/ha, scale 0 to 100", "result": 0},
      {"measurement": "Plant response rating, Nightshade", "setting": "Nightshade [9]; [17]", "result": 0},
      {"measurement": "Plant response rating, Nightshade", "setting": "Nightshade [9]; Rate 250 g/ha, scale 0 to 100, 0 no effect, 100 complete control", "result": 20},
      {"measurement": "Plant response rating, Goosegrass", "setting": "[10]; [17]", "result": 75},
      {"measurement": "Plant response rating, Goosegrass", "setting": "[10]; [18]", "result": 60},
      {"measurement": "Plant response rating (0 to 100), Goosegrass", "setting": "[10]; [19]", "result": 100},
      {"measurement": "Plant response rating, Goosegrass", "setting": "[10]; [20]", "result": 100},
      {"measurement": "Plant response rating, Ragweed, Common", "setting": "[11]; [17]", "result": 0},
      {"measurement": "Plant response rating, Ragweed, Common", "setting": "[11]; [18]", "result": 0},
      {"measurement": "Plant response rating (0 to 100), Ragweed, Common", "setting": "[11]; [19]", "result": 40},
      {"measurement": "Plant response rating, Ragweed, Common", "setting": "[11]; [20]", "result": 0},
      {"measurement": "Plant response rating, Lambsquarters", "setting": "[12]; [17]", "result": 100},
      {"measurement": "Plant response rating, Lambsquarters", "setting": "[12]; [18]", "result": 80},
      {"measurement": "Plant response rating (0 to 100), Lambsquarters", "setting": "[12]; [19]", "result": 100},
      {"measurement": "Plant response rating, Lambsquarters", "setting": "[12]; [20]", "result": 100},
      {"measurement": "Plant response rating, Pigweed", "setting": "[13]; [17]", "result": 0},
      {"measurement": "Plant response rating, Pigweed", "setting": "[13]; [18]", "result": 0},
      {"measurement": "Plant response rating (0 to 100), Pigweed", "setting": "[13]; [19]", "result": 50},
      {"measurement": "Plant response rating, Pigweed", "setting": "[13]; [20]", "result": 100},
      {"measurement": "Plant response rating, Crabgrass", "setting": "[14]; [17]", "result": 80},
      {"measurement": "Plant response rating, Crabgrass", "setting": "[14]; [18]", "result": 60},
      {"measurement": "Plant response rating (0 to 100), Crabgrass", "setting": "[14]; [19]", "result": 100},
      {"measurement": "Plant response rating, Crabgrass", "setting": "[14]; [20]", "result": 100},
      {"measurement": "Plant response rating, Morningglory", "setting": "[15]; [17]", "result": 0},
      {"measurement": "Plant response rating, Morningglory", "setting": "[15]; [18]", "result": 0},
      {"measurement": "Plant response rating (0 to 100), Morningglory", "setting": "[15]; [19]", "result": 0},
      {"measurement": "Plant response rating, Morningglory", "setting": "[15]; [20]", "result": 0},
      {"measurement": "Plant response rating, Cupgrass, Woolly", "setting": "[16]; [17]", "result": 10},
      {"measurement": "Plant response rating, Cupgrass, Woolly", "setting": "[16]; [18]", "result": 0},
      {"measurement": "Plant response rating (0 to 100), Cupgrass, Woolly", "setting": "[16]; [19]", "result": 50},
      {"measurement": "Plant response rating, Cupgrass, Woolly", "setting": "[16]; [20]", "result": 50},
      {"measurement": "Plant response rating, Sunflower", "setting": "Sunflower", "result": 0}
    ]}
  ]
}
